Bounds are passed on as bounds.

In the assay the test system is Mtb BioA overexpression strain (BioA-OE). Briefly: microbe, parasite or virus in culture. The class given is cell-based, Mycobacterium tuberculosis.

Consider `CC(=O)c1ccc(N2CCN(C(=O)c3ccc4c(c3)OCO4)CC2)cc1` [Compound 6, 1-(4-(4-(Benzo[d][1,3]dioxole-5-carbonyl)piperazin-1-yl)phenyl)-ethanone], for which the MIC (Mycobacterium tuberculosis, read-out: MIC that results in 90% inhibition, BioA-OE) is > 50 µM.
“(3-Chlorophenyl)(4-(5-methoxypyridin-2-yl)piperazin-1-yl)-methanone [Compound 22]”: the “MIC50 BioA-OE” value (MIC that results in 50% inhibition, […]) is >50 µM.

These data come from article PMC5590679 (Journal of medicinal chemistry, 2017).
